Values of other authors in patent US20080057122A1, “Acetaminophen pharmaceutical compositions” (priority 2006, published 2008).

Compound	time in which peak concentrations are reached (Darvocet-N 100 immediate release tablets)	early half-life (in vivo)	terminal half-life (in vivo)
CC(=O)Nc1ccc(O)cc1 [acetaminophen]	≤ 2 h		
CCC(=O)O[C@](Cc1ccccc1)(c1ccccc1)[C@H](C)CN(C)C [propoxyphene]		6 to 12 h	approximately 20 hours
